{
  "source": "ChEMBL document CHEMBL4680076",
  "about": "“Hydraphiles enhance antimicrobial potency against Escherichia coli, Pseudomonas aeruginosa, and Bacillus subtilis” (2016)",
  "key": {"[1]": {"system": "Escherichia coli", "assay": "Antimicrobial activity against Escherichia coli DH5alpha assessed as inhibition of bacterial growth incubated for overnight by CLSI method", "format": "functional", "settings": "DH5[alpha]"}, "[2]": {"system": "Escherichia coli", "assay": "Antimicrobial activity against Escherichia coli K-12 assessed as inhibition of bacterial growth incubated for overnight by CLSI method", "format": "functional"}, "[3]": {"system": "Pseudomonas aeruginosa", "assay": "Antimicrobial activity against Pseudomonas aeruginosa assessed as inhibition of bacterial growth incubated for overnight by CLSI method", "format": "functional"}, "[4]": {"system": "Bacillus subtilis", "assay": "Antimicrobial activity against Bacillus subtilis assessed as inhibition of bacterial growth incubated for overnight by CLSI method", "format": "functional"}, "[5]": {"system": "Escherichia coli", "assay": "Synergistic antimicrobial activity against Escherichia coli K-12 assessed as fold enhancement in kanamycin potency at 1.25 uM incubated for overnight by CLSI method", "format": "functional"}, "[6]": {"system": "Escherichia coli", "assay": "Synergistic antimicrobial activity against Escherichia coli K-12 assessed as fold enhancement in kanamycin potency at 0.6 uM incubated for overnight by CLSI method", "format": "functional, organism-based"}, "[7]": {"system": "Escherichia coli", "assay": "Synergistic antimicrobial activity against Escherichia coli K-12 assessed as fold enhancement in tetracycline potency at 1.25 uM incubated for overnight by CLSI method", "format": "functional"}, "[8]": {"system": "Escherichia coli", "assay": "Synergistic antimicrobial activity against Escherichia coli K-12 assessed as fold enhancement in tetracycline potency at 0.6 uM incubated for overnight by CLSI method", "format": "functional"}, "[9]": {"system": "Escherichia coli", "assay": "Synergistic antimicrobial activity against Escherichia coli K-12 assessed as fold enhancement in erythromycin potency at 1.25 uM incubated for overnight by CLSI method", "format": "functional"}, "[10]": {"system": "Escherichia coli", "assay": "Synergistic antimicrobial activity against Escherichia coli K-12 assessed as fold enhancement in erythromycin potency at 0.6 uM incubated for overnight by CLSI method", "format": "functional"}, "[11]": {"system": "Escherichia coli", "assay": "Synergistic antimicrobial activity against Escherichia coli K-12 assessed as fold enhancement in rifampicin potency at 1.25 uM incubated for overnight by CLSI method", "format": "functional"}, "[12]": {"system": "Escherichia coli", "assay": "Synergistic antimicrobial activity against Escherichia coli K-12 assessed as fold enhancement in rifampicin potency at 0.6 uM incubated for overnight by CLSI method", "format": "functional"}, "[13]": {"system": "Pseudomonas aeruginosa", "assay": "Synergistic antimicrobial activity against Pseudomonas aeruginosa assessed as fold enhancement in tetracycline potency at 1 uM incubated for overnight by CLSI method", "format": "functional"}, "[14]": {"system": "Pseudomonas aeruginosa", "assay": "Synergistic antimicrobial activity against Pseudomonas aeruginosa assessed as fold enhancement in tetracycline potency at 0.5 uM incubated for overnight by CLSI method", "format": "functional"}, "[15]": {"system": "Pseudomonas aeruginosa", "assay": "Synergistic antimicrobial activity against Pseudomonas aeruginosa assessed as fold enhancement in erythromycin potency at 1 uM incubated for overnight by CLSI method", "format": "functional"}, "[16]": {"system": "Pseudomonas aeruginosa", "assay": "Synergistic antimicrobial activity against Pseudomonas aeruginosa assessed as fold enhancement in erythromycin potency at 0.5 uM incubated for overnight by CLSI method", "format": "functional"}, "[17]": {"system": "Pseudomonas aeruginosa", "assay": "Synergistic antimicrobial activity against Pseudomonas aeruginosa assessed as fold enhancement in rifampicin potency at 1 uM incubated for overnight by CLSI method", "format": "functional"}, "[18]": {"system": "Pseudomonas aeruginosa", "assay": "Synergistic antimicrobial activity against Pseudomonas aeruginosa assessed as fold enhancement in rifampicin potency at 0.5 uM incubated for overnight by CLSI method", "format": "functional"}, "[19]": {"system": "Bacillus subtilis", "assay": "Synergistic antimicrobial activity against Bacillus subtilis assessed as fold enhancement in tetracyclin potency at 0.12 uM incubated for overnight by CLSI method", "format": "functional"}, "[20]": {"system": "Bacillus subtilis", "assay": "Synergistic antimicrobial activity against Bacillus subtilis assessed as fold enhancement in erythromycin potency at 0.12 uM incubated for overnight by CLSI method", "format": "functional"}, "[21]": {"system": "Escherichia coli", "assay": "Growth inhibition of Escherichia coli DH5alpha at half MIC measured every 15 mins for 12 hrs", "format": "functional, organism-based", "settings": "DH5[alpha]"}, "[22]": {"system": "Escherichia coli", "assay": "Growth inhibition of Escherichia coli DH5alpha at half MIC measured every 15 mins for 12 hrs in presence of 25 uM erythromycin", "format": "functional, organism-based", "settings": "DH5[alpha]"}, "[23]": {"system": "Escherichia coli", "assay": "Synergistic antimicrobial activity against Escherichia coli K-12 assessed as enhancement in rifampicin potency at 2.5 uM", "format": "functional, organism-based"}, "[24]": {"system": "Escherichia coli", "assay": "Synergistic antimicrobial activity against Escherichia coli DH5alpha assessed as fold enhancement in kanamycin potency at 150 uM incubated for overnight by CLSI method", "format": "functional, DH5[alpha]"}, "[25]": {"system": "Escherichia coli", "assay": "Synergistic antimicrobial activity against Escherichia coli DH5alpha assessed as fold enhancement in kanamycin potency at 75 uM incubated for overnight by CLSI method", "format": "functional, DH5[alpha]"}, "[26]": {"system": "Escherichia coli", "assay": "Synergistic antimicrobial activity against Escherichia coli DH5alpha assessed as fold enhancement in tetracycline potency at 150 uM incubated for overnight by CLSI method", "format": "functional, DH5[alpha]"}, "[27]": {"system": "Escherichia coli", "assay": "Synergistic antimicrobial activity against Escherichia coli DH5alpha assessed as fold enhancement in tetracycline potency at 75 uM incubated for overnight by CLSI method", "format": "functional, DH5[alpha]"}, "[28]": {"system": "Escherichia coli", "assay": "Synergistic antimicrobial activity against Escherichia coli DH5alpha assessed as fold enhancement in erythromycin potency at 150 uM incubated for overnight by CLSI method", "format": "functional, DH5[alpha]"}, "[29]": {"system": "Escherichia coli", "assay": "Synergistic antimicrobial activity against Escherichia coli DH5alpha assessed as fold enhancement in rifampicin potency at 75 uM incubated for overnight by CLSI method", "format": "functional, DH5[alpha]"}, "[30]": {"system": "Escherichia coli", "assay": "Synergistic antimicrobial activity against Escherichia coli DH5alpha assessed as fold enhancement in rifampicin potency at 150 uM incubated for overnight by CLSI method", "format": "functional, DH5[alpha]"}, "[31]": {"assay": "Synergistic antimicrobial activity against Escherichia coli DH5alpha assessed as fold enhancement in erythromycin potency at 75 uM incubated for overnight by CLSI method", "format": "functional, K-12"}, "[32]": {"system": "Escherichia coli", "assay": "Growth inhibition of Escherichia coli DH5alpha at 25 uM measured every 15 mins for 12 hrs", "format": "functional, organism-based", "settings": "DH5[alpha]"}, "[33]": {"system": "Escherichia coli", "assay": "Growth inhibition of Escherichia coli DH5alpha at 50 uM measured every 15 mins for 12 hrs", "format": "functional, organism-based", "settings": "DH5[alpha]"}},
  "note": "The source made the active and inactive calls. No cut-off for these calls is given here.",
  "data": [
    {"smiles": "CO[C@H]1/C=C/O[C@@]2(C)Oc3c(C)c(O)c4c(O)c(c(/C=N/N5CCN(C)CC5)c(O)c4c3C2=O)NC(=O)/C(C)=C\\C=C\\[C@H](C)[C@H](O)[C@@H](C)[C@@H](O)[C@@H](C)[C@H](OC(C)=O)[C@@H]1C", "note": "[RIFAMPIN]", "values": [
      {"measurement": "MIC", "setting": "[1]", "value": 55, "unit": "µM"},
      {"measurement": "MIC", "setting": "[2]", "value": 16, "unit": "µM"},
      {"measurement": "MIC", "setting": "[3]", "value": 25, "unit": "µM"}
    ]},
    {"smiles": "c1ccc(CN2CCOCCOCCN(CCCCCCCCCCCCCCN3CCOCCOCCN(CCCCCCCCCCCCCCN4CCOCCOCCN(Cc5ccccc5)CCOCCOCC4)CCOCCOCC3)CCOCCOCC2)cc1", "values": [
      {"measurement": "MIC", "setting": "[1]", "value": 2, "unit": "µM"},
      {"measurement": "MIC", "setting": "[2]", "value": 2.5, "unit": "µM"},
      {"measurement": "MIC", "setting": "[3]", "value": 2, "unit": "µM"},
      {"measurement": "MIC", "setting": "[4]", "value": 0.5, "unit": "µM"},
      {"measurement": "fold change (FC)", "setting": "[5]", "value": 2},
      {"measurement": "fold change (FC)", "setting": "[6]", "value": "inactive"},
      {"measurement": "fold change (FC)", "setting": "[7]", "value": 5},
      {"measurement": "fold change (FC)", "setting": "[8]", "value": 2},
      {"measurement": "fold change (FC)", "setting": "[9]", "value": 9},
      {"measurement": "fold change (FC)", "setting": "[10]", "value": 2},
      {"measurement": "fold change (FC)", "setting": "[11]", "value": 30},
      {"measurement": "fold change (FC)", "setting": "[12]", "value": 4},
      {"measurement": "fold change (FC)", "setting": "[13]", "value": 4},
      {"measurement": "fold change (FC)", "setting": "[14]", "value": 2},
      {"measurement": "fold change (FC)", "setting": "[15]", "value": 8},
      {"measurement": "fold change (FC)", "setting": "[16]", "value": 4},
      {"measurement": "fold change (FC)", "setting": "[17]", "value": 11},
      {"measurement": "fold change (FC)", "setting": "[18]", "value": 5},
      {"measurement": "fold change (FC)", "setting": "[19]", "value": 2},
      {"measurement": "fold change (FC)", "setting": "[20]", "value": 2},
      {"measurement": "growth inhibition (GI)", "setting": "[21]", "value": "inactive"},
      {"measurement": "growth inhibition (GI)", "setting": "[22]", "value": "Active"},
      {"measurement": "Activity", "setting": "[23]", "value": "Active"}
    ]},
    {"smiles": "CN(C)[C@@H]1C(O)=C(C(N)=O)C(=O)[C@@]2(O)C(O)=C3C(=O)c4c(O)cccc4[C@@](C)(O)[C@H]3C[C@@H]12", "note": "[TETRACYCLINE]", "values": [
      {"measurement": "MIC", "setting": "[1]", "value": 5, "unit": "µM"},
      {"measurement": "MIC", "setting": "[2]", "value": 5, "unit": "µM"},
      {"measurement": "MIC", "setting": "[3]", "value": 12, "unit": "µM"},
      {"measurement": "MIC", "setting": "[4]", "value": 3, "unit": "µM"}
    ]},
    {"smiles": "c1ccc(CN2CCOCCOCCN(CCCCCCCCN3CCOCCOCCN(CCCCCCCCN4CCOCCOCCN(Cc5ccccc5)CCOCCOCC4)CCOCCOCC3)CCOCCOCC2)cc1", "values": [
      {"measurement": "MIC", "setting": "[1]", "value": 300, "unit": "µM"},
      {"measurement": "MIC", "setting": "[2]", "value": 200, "unit": "µM"},
      {"measurement": "fold change (FC)", "setting": "[24]", "value": 3},
      {"measurement": "fold change (FC)", "setting": "[25]", "value": 2},
      {"measurement": "fold change (FC)", "setting": "[26]", "value": 5},
      {"measurement": "fold change (FC)", "setting": "[27]", "value": 2},
      {"measurement": "fold change (FC)", "setting": "[28]", "value": 13},
      {"measurement": "fold change (FC)", "setting": "[29]", "value": 18},
      {"measurement": "fold change (FC)", "setting": "[30]", "value": 18},
      {"measurement": "fold change (FC)", "setting": "[31]", "value": 8},
      {"measurement": "Activity", "setting": "[23]", "value": "inactive"}
    ]},
    {"smiles": "CC[C@H]1OC(=O)[C@H](C)[C@@H](O[C@H]2C[C@@](C)(OC)[C@@H](O)[C@H](C)O2)[C@H](C)[C@@H](O[C@@H]2O[C@H](C)C[C@H](N(C)C)[C@H]2O)[C@](C)(O)C[C@@H](C)C(=O)[C@H](C)[C@@H](O)[C@]1(C)O", "note": "[ERYTHROMYCIN]", "values": [
      {"measurement": "MIC", "setting": "[1]", "value": 200, "unit": "µM"},
      {"measurement": "MIC", "setting": "[2]", "value": 700, "unit": "µM"},
      {"measurement": "MIC", "setting": "[3]", "value": 200, "unit": "µM"},
      {"measurement": "MIC", "setting": "[4]", "value": 0.3, "unit": "µM"},
      {"measurement": "growth inhibition (GI)", "setting": "[32]", "value": "inactive"},
      {"measurement": "growth inhibition (GI)", "setting": "[33]", "value": "Active"}
    ]},
    {"smiles": "c1ccc(CN2CCOCCOCCN(CCCCCCCCCCCCCCCCN3CCOCCOCCN(CCCCCCCCCCCCCCCCN4CCOCCOCCN(Cc5ccccc5)CCOCCOCC4)CCOCCOCC3)CCOCCOCC2)cc1", "values": [
      {"measurement": "MIC", "setting": "[1]", "value": 4, "unit": "µM"},
      {"measurement": "MIC", "setting": "[3]", "value": 2, "unit": "µM"},
      {"measurement": "fold change (FC)", "setting": "[15]", "value": 8},
      {"measurement": "fold change (FC)", "setting": "[16]", "value": 4}
    ]}
  ]
}
